Experimental data as given in US8748088B2, “Methods of monitoring treatment effectiveness in HIV-infected patients receiveing intensified HAART regimens by measuring episomal 2-LTR circles” (University of Massachusetts, priority 2009, dated 2014).

Key:
[1] = system: total HIV-1 DNA; assay: Real-time PCR quantification of total HIV-1 DNA in PBMCs of intensified patients; type: in vivo; details: throughout the 12 weeks of intensification, p=0.342 signed rank test
Excerpt: (§1) A total of 69 patients with undetectable plasma viremia (viral load <50 HIV-1 RNA copies/ml) for at least one year were included in this study. All patients were on a suppressive HAART regimen that included 2 nucleoside reverse transcriptase inhibitors, and either a protease inhibitor or a non-nucleoside reverse transcriptase inhibitor. A total of 45 patients were randomized to intensify their HAART with the integrase inhibitor raltegravir for 12 weeks, and 24 patients were included as a control arm. One patient in the control group was lost to follow-up before study initiation. […]
Total viral DNA forms (comprising unintegrated and integrated viral cDNA) were assayed using internal LTR primers (FIG. 2). […] Real-time PCR-based quantification of total HIV-1 DNA was performed as follows. […] A single-step real-time PCR was used to quantify total HIV-1 DNA in a 50 ul PCR reaction mix containing 25 ul of TaqMan® Universal PCR Master Mix (Applied Biosystems), 20 ul of chromosomal HIV-1 DNA and primers and probe that anneal in the 5′ and 3′ end of the R and U5 region of the LTR respectively, as has previously been described (Brussel and Sonigo, J Virol 77, 10119-10124 (2003)) using a forward primer; 5′ GG CTA ACT AGG GAA CCC ACT G 3′ (SEQ ID NO:4) and a reverse primer; 5′ GCTAGAGATTTTCCACACTGACTAA 3′ (SEQ ID NO:5). […] Amplification and calculation of copy number was determined as for 2-LTR DNA. […]

[2] = system: integrated HIV-1 DNA; assay: Two-step Alu-LTR real-time PCR quantification of integrated HIV-1 DNA in PBMCs of intensified patients; type: in vivo; details: for levels of integrated HIV-1 DNA: throughout the 12 weeks of intensification, p=0.768 signed rank test
Excerpt: A total of 69 patients with undetectable plasma viremia (viral load <50 HIV-1 RNA copies/ml) for at least one year were included in this study. All patients were on a suppressive HAART regimen that included 2 nucleoside reverse transcriptase inhibitors, and either a protease inhibitor or a non-nucleoside reverse transcriptase inhibitor. A total of 45 patients were randomized to intensify their HAART with the integrase inhibitor raltegravir for 12 weeks, and 24 patients were included as a control arm. One patient in the control group was lost to follow-up before study initiation. A second patient also in this group, who had two consecutive viral load measurements at weeks 12 and 24 (90 and 63 HIV-1 copies/mL respectively), was excluded for further analysis.
HIV-1 DNA purification was isolated as previously described (Hunt et al., J Infect Dis 187, 1534-1543 (2003)) with some modifications. […]
Real-time PCR-based quantification of integrated HIV-1 DNA was performed as follows. […] A two-step real-time PCR was used to quantitate integrated HIV-1 DNA using Alu-LTR primers as has previously been described (Brussel and Sonigo, J Virol 77, 10119-10124 (2003)). […] The fluorescence taqman probe was 5′[…] […]
Amplification and calculation of copy number was determined as for 2-LTR DNA. […] Integrated proviral DNA was measured using LTR-Alu primers. […]
(§2) Statistical analysis for the above-described experiments was performed as follows. […] In each group longitudinal changes of total and integrated HIV-1 and immune activation parameters were assessed through the signed rank test (paired test) comparing weeks 0 and 12, or weeks 0 and 24 respectively. Differences in proportions between groups were analyzed through the Pearson's chi square, considering the continuity correction or the Fisher's exact test, as appropriate. Within the intensified arm, differences in 2-LTR circles at weeks 2 and 4 compared to baseline were analyzed using Peto-Prentice-Wilcoxon test. […]

[3] = system: HIV-1 2-LTR circles; assay: Real-time PCR quantification of episomal HIV-1 DNA (2-LTR circles) in PBMCs of HAART-suppressed patients intensified with raltegravir; type: in vivo
Excerpt: as §1
The samples included in this study were drawn from HIV-1 infected patients who were longitudinally monitored for up to 12 weeks. […]
In the formation of 2-LTR circles, U3 and U5 sequences within the 5′ and 3′ LTRs ligate to form a unique U3-U5 circle junction that is not represented in other forms of viral cDNA (FIG. 1A). Therefore, 2-LTR circles were specifically measured by real-time PCR with primers flanking the 2-LTR circle junction. […]
Real-time PCR-based quantification of HIV-1 2-LTR circles was performed as follows. […] A single-step, real-time PCR was used to quantify 2-LTR circles in a 50 ul PCR reaction mix containing 25 ul of TaqMan® Universal PCR Master Mix (Applied Biosystems), 20 ul of extrachromosomal HIV-1 DNA and primers and probe that span the 2-LTR circle junction. […]

[4] = system: memory CD4+ and activated CD8+ T cells; assay: Flow cytometry analysis of lymphocyte subsets and immune activation in fresh blood; type: in vivo, HIV-1 infected patients
Method: Analysis of lymphocyte subsets and immune activation was performed as follows. A total of 52 patients, 34 in the intensification group and 18 patients in the control group, had fresh blood samples available for flow cytometry analysis through the study period. Different combinations of antibodies were used to characterize different lymphocyte subsets: combination 1 was designed to evaluate naïve/memory subsets and contained CD45RA-FITC, CD31-PE, CD38-PerCP, CD3-APC-Cy7, CD4-APC and CD8-PE-Cy7; combination 2 was designed to evaluate the activation of CD8 T cells and contained HLA-DR-FITC, PD-1-PE, CD38-PerCP, CD45RO-APC, CD3-APC-Cy7 and CD8-PE-Cy7. Controls with combinations of CD3-APC-Cy7, CD4-APC and CD8-PE-Cy7 antibodies were performed for all samples. All antibodies were obtained from Becton Dickinson. Briefly, 20 ul of fresh whole blood was incubated with antibodies for 15 min at room temperature with the different antibody combinations in V-bottom 96-well plates. Red cells were lysed using the BD FACs lysing solution (Becton Dickinson), washed once with PBS and resuspended in PBS containing 1% formaldehyde. Acquisition of flow cytometry data was performed on an LSRII flow cytometer (Becton Dickinson) coupled with a HTS loader. At least 30,000 lymphocytes were collected for each sample. Analyses were performed with FlowJo software (Tree Star Inc.).
as §2

[5] = raltegravir-intensified group as a whole, throughout the study period (weeks 0-24)

## Cc1nnc(C(=O)NC(C)(C)c2nc(C(=O)NCc3ccc(F)cc3)c(O)c(=O)n2C)o1 [raltegravir]
[1]
  levels of total HIV-1 DNA: remained stable
[1]; listed as Raltegravir
  levels of total HIV-1 DNA: did not cause significant fluctuations
[2]; intensified patients 39/45, any time point after initiation of the study
  patients from whom integrated HIV-1 DNA was amplified: 87%
[2]
  levels of integrated HIV-1 DNA: remained stable
[2]; listed as Raltegravir
  levels of integrated HIV-1 DNA: did not cause significant fluctuations
[3]; HAART intensified with raltegravir for 12 weeks, n=45, any time point during the study, 13/45, control 0/22, p=0.003
  patients with detectable 2-LTR circles (active replication revealed): 29%
[3]; intensification group, weeks 2 and 4 vs baseline (p=0.036 and p=0.023), subsequent decrease afterwards
  change in 2-LTR circles compared to baseline: significant and transient increase in 2-LTR circles
[4]; patients in which raltegravir impacted active replication (2-LTR+ subgroup, n=13)
  immune activation: normalization of immune activation
[4]; [5]
  activated CD8+ T cells: no major changes
  memory CD4+ T cells (CD4+CD45RA-): no major changes
